From patent US20250017964A1, “ENGINEERING OR INDUCING PDGF AND/OR PDGFR SIGNALING TO ENHANCE NK CELL THERAPY” (City of Hope, priority 2021, published 2025)

Tested on: NOD/SCID/IL-2rg (NSG) mice
Assay: PDGF-D injection after NK cell adoptive transfer into NSG mice, annexin V and Ki-67
Details: in vivo, PDGF-D 1 μg per mouse i.v. daily for 3 days
Procedure: FIGS. 6A-6M. IL-15 maintains NK cell survival through a PDGF-D-PDGFRβ autocrine pathway. (A) 1×10^5 primary NK cells were cultured in vitro for 7 days in the presence of IL-15 (10 ng/ml) and PDGF-D (50 ng/ml). Cells were counted on days 3, 5, and 7 (n=3). (B) 1×10^5 primary NK cells were cultured in vitro for 7 days in the presence of IL-15 (10 ng/ml) and anti-PDGF-D (10 βg/ml) or control IgG (10 μg/ml). Cells were counted on days 3, 5, and 7 (n=3). […] The cells were counted by trypan exclusion assay on days 3, 5, and 7 (n=3). (D) 1×10^5 primary NK cells were cultured in vitro for 7 days in the presence of IL-15 (10 ng/ml) and PDGF-D (50 ng/ml) as well as anti-PDGFRβ (10 μg/ml). Cells were counted by trypan exclusion assay on days 3, 5, and 7 (n=3). (E) 1×10^5 primary NK cells were cultured in vitro for 7 days in the presence of IL-15 (10 ng/ml) and PDGF-D (50 ng/ml) as well as anti-NKp44 (10 μg/ml). Cells were counted by trypan exclusion assay on days 3, 5, and 7 (n=3). (F-I) Primary NK cells were cultured in the presence of IL-15 (10 ng/ml) and PDGF-D (50 ng/ml) as well as anti-NKp44 (10 μg/ml) or anti-PDGFRβ (10 Kg/ml) for 48 h. The cultured NK cells were then harvested for immunoblotting to determine protein levels of BCL-2, BCL-XL, and MCL-1 (n=3). […] Cell apoptosis and proliferation were analyzed by annexin V staining (J) and Ki-67 staining (K), respectively. […]

PDGF-D: recombinant human PDGF-DD (1159-SB-025), R&D Systems
NK cell proliferation (Ki67): did not affect NK cell proliferation | apoptosis of PDGFRβ^+ NK cells (annexin V) (peripheral blood): inhibited apoptosis
